Test results reported in patent US20160287575A1, “COMPOSITIONS AND METHODS FOR THE TREATMENT OF DISEASES INVOLVING HIPPO PATHWAY” (DUKE UNIVERSITY, priority 2013, published 2016).
Residues, ends and D or L forms follow the SMILES beside them. *: point of attachment. Cbz = O=C(OCc1ccccc1)*

Columns and labels:
YAP = experiment: pharmacological block of YAP protein turnover in RASSF4-deficient aRMS cells; format: cell-based, human; conditions: RASSF4-deficient aRMS cells versus control; data not shown
From the text: Finally, we examined whether there was a connection between RASSF4 and YAP. […] Since YAP protein is turned over by sequential phosphorylation and ubiquitin-mediated degradation (Zhao et al., Genes Dev. 24:72-85 (2010)), we attempted to pharmacologically block YAP protein turnover in RASSF4-deficient cells using MG132 or IC 261. […] When examined at the transcriptional level, we observed a decreasing trend in YAP mRNA levels that only reached significance with one RASSF4 shRNA. Since RASSF4 loss of function was causing growth arrest and senescence, we reasoned that these effects on YAP could be caused by the growth arrest itself and RASSF4 loss. […] Instead, cells expressing YAP S127A and RASSF4 shRNA had more pronounced mitotic defects (data not shown). Therefore, while we cannot identify a clear connection between RASSF4 and YAP in aRMS at this time, Hippo signaling is clearly dysregulated at multiple levels in RMS through RASSF4-MST1 and YAP-mediated mechanisms (FIG. 7F).

LATS1 = experiment: nocodazole treatment, LATS1 phosphorylation by immunoblot; format: cell-based, human; conditions: nocodazole-treated HSMM^PF+H+M cells, control and RASSF4-knockdown
MST1 = molecular target: T1, MST1 (Homo sapiens, UniProt Q13043, K59R); experiment: staurosporine stimulation, MST1 phosphorylation by immunoblot; format: cell-based; conditions: MST1 K59R expressing HSMM^PF+H+M cells, 1 μM STS, 1 hour
T1 construct: expressed in transfected cells; host or cells: HSMM^PF+H+M cells (human skeletal muscle myoblasts expressing PAX3-FOXO1, hTERT, MycN), with or without RASSF4 shRNA
T1 sequence (Q13043 1-487 K59R): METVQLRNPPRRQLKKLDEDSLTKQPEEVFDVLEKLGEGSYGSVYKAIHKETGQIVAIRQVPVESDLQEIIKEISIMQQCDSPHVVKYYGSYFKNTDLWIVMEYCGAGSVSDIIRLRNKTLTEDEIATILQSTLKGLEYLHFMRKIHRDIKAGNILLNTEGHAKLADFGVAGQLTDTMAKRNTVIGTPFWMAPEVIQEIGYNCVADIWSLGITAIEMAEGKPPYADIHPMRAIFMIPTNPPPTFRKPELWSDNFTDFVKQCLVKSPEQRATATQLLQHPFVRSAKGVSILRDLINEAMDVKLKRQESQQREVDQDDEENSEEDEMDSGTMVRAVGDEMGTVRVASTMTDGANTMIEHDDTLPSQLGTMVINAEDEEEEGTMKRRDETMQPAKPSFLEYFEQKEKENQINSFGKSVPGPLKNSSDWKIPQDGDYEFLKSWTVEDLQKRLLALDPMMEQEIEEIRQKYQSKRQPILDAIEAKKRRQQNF
Experimental: (A) RASSF4 deficiency causes MST1 phosphorylation and cleavage upon staurosporine (STS) treatment. Cells expressing FLAG-MST1 K59R were treated for 1 hour with 1 μM STS and examined for phosphor-MST1/2 and total MST1 by immunoblot. (B) Upon 1 hour treatment with 1 μM STS, RASSF4-deficient aRMS cells display higher cleaved caspase 3 as measured by immunoblot. In A and B, actin was used as a loading control.
However, even without the ability to activate downstream signaling, MST1 K59R can still be regulated like wild-type MST1 through phosphorylation by upstream kinases and caspase cleavage. Since endogenous phospho-MST1 levels and MST1 cleavage products were in low abundance in aRMS cells and were difficult to detect, we used cells expressing MST1K59R to boost MST1 expression, while maintaining cell viability. We stimulated cells with staurosporine (STS), a well-established activator of MST1, and examined the role of RASSF4 in MST1 phosphorylation and cleavage (Graves et al., J. Biol. Chem 276:14909-14915 (2001)). […] This is the reported size of the MST1 cleavage fragment believed to be regulated by caspases (Graves et al. (2001); Cheung et al., Cell 113:507-517 (2003); Praskova et al., Biochem J. 381:453-462 (2004)). […]

[1] = molecular target: Yki/YAP and transcriptional coactivator TEAD/TEF transcription factors (Homo sapiens, UniProt P46937); conditions: identified in a screen; cited from earlier work
Yki/YAP and transcriptional coactivator TEAD/TEF transcription factors, sequence (P46937 whole entry): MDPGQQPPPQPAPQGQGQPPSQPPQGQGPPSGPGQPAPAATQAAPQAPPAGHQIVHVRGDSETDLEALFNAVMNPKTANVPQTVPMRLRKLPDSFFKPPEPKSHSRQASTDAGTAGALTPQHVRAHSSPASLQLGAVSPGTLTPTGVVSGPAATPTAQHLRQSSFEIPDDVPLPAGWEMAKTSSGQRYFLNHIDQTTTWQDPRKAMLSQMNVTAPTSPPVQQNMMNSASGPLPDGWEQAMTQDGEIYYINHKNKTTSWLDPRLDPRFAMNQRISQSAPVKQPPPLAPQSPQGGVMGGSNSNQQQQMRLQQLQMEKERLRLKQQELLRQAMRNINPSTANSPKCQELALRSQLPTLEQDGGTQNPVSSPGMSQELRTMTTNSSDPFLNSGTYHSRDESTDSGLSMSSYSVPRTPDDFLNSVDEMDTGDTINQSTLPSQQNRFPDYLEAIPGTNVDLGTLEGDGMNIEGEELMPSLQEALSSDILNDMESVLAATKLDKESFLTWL

COc1cc(OC)c(C=C2C(O)=Nc3ccccc32)c(OC)c1 [IC 261]
phospho-YAP and total YAP levels (YAP): still lower

CC(C)C[C@@H](C=O)NC(=O)[C@H](CC(C)C)NC(=O)[C@H](CC(C)C)NC(=O)OCc1ccccc1 [MG132] (Cbz-Leu-Leu-Leu-aldehyde)
phospho-YAP and total YAP levels (YAP): still lower

COC(=O)Nc1nc2ccc(C(=O)c3cccs3)cc2[nH]1 [nocodazole]
phosphorylated LATS1 (LATS1): reduction in phosphorylated LATS1

CN[C@@H]1C[C@H]2O[C@@](C)([C@@H]1OC)n1c3ccccc3c3c4c(c5c6ccccc6n2c5c31)C(=O)NC4 [staurosporine]
phosphorylation of full-length MST1 (MST1): increased phosphorylation of full-length MST1

verteporfin
disruption of physical interactions between Yki/YAP and TEAD/TEF [1]: capable of disrupting physical interactions
